Results on eleven molecules are retold here after ChEMBL document CHEMBL1145498, “A systematic interaction map of validated kinase inhibitors with Ser/Thr kinases” (Proc Natl Acad Sci U S A, 2007).

Molecules are shown by their SMILES.

Test [1] deals with Serine/threonine-protein kinase Chk2 (Homo sapiens, UniProt O96017).
For test [2], the target named is Tyrosine-protein kinase JAK1 (Homo sapiens) (UniProt P23458).
Test [3] deals with Mitogen-activated protein kinase 11 (Homo sapiens, UniProt Q15759).
Test [4] deals with T1, Serine/threonine-protein kinase Nek2 (Homo sapiens) (UniProt P51955).
T1 sequence (whole entry): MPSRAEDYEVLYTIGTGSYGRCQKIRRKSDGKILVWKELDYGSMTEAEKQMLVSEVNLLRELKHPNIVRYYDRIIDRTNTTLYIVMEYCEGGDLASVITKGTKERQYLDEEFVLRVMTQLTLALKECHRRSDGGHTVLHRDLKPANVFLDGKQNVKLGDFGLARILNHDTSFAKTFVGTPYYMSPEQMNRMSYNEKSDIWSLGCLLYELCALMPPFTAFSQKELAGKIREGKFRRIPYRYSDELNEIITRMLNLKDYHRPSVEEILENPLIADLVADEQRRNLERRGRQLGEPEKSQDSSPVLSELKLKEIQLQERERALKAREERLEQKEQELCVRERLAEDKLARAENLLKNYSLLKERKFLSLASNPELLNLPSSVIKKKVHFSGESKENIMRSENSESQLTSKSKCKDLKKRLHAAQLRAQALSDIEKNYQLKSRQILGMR

Test [5] deals with Serine/threonine-protein kinase PAK 4 (Homo sapiens) (UniProt O96013).
The target in test [6] is Serine/threonine-protein kinase PAK 5 (Homo sapiens) (UniProt Q9P286).
Test [7] has as its target T2, 3-phosphoinositide-dependent protein kinase 1 (Homo sapiens) (UniProt O15530).
T2 sequence (whole entry): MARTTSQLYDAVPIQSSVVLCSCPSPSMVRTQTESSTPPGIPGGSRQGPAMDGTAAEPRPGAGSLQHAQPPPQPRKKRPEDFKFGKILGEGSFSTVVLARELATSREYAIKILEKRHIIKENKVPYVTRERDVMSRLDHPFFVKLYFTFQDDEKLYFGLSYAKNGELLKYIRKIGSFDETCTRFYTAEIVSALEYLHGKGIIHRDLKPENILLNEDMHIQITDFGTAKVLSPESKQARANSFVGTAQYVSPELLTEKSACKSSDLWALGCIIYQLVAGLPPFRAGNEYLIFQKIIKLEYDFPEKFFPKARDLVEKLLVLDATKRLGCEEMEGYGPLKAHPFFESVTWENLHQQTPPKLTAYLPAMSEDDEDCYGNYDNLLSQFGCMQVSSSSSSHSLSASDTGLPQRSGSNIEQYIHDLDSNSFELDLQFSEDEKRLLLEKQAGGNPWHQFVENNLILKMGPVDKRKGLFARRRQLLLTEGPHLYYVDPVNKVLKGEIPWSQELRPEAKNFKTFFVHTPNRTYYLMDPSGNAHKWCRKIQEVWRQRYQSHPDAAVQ

Test [8] deals with Serine/threonine-protein kinase pim-3 (Homo sapiens) (UniProt Q86V86).
The target of test [9] is T3, Serine/threonine-protein kinase PLK4 (Homo sapiens) (UniProt O00444).
T3 sequence (whole entry): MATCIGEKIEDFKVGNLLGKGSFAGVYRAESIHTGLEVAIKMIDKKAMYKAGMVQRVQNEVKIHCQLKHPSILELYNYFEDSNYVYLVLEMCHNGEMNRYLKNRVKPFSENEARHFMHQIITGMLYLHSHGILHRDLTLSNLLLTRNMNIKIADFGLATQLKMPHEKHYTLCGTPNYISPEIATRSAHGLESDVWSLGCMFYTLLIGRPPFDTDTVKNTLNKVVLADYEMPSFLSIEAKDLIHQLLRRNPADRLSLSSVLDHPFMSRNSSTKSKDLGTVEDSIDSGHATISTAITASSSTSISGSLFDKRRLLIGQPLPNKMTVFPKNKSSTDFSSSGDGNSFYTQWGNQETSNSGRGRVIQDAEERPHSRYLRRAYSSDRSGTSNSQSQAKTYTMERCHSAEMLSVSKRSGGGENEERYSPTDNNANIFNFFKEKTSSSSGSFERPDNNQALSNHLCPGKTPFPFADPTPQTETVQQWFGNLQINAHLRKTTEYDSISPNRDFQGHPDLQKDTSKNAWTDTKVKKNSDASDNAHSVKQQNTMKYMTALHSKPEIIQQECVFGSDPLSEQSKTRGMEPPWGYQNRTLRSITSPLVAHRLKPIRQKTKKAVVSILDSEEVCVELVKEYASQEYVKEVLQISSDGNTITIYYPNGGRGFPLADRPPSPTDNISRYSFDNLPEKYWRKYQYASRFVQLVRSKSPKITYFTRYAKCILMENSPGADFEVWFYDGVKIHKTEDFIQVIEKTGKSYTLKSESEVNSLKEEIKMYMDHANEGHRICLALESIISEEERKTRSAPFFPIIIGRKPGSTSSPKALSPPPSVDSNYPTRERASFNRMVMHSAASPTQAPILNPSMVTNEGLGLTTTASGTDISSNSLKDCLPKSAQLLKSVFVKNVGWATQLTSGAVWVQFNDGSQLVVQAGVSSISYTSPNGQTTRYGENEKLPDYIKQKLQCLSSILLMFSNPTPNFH

Test [10] deals with cAMP-dependent protein kinase catalytic subunit alpha (Homo sapiens) (UniProt P17612).
For test [11], the target named is STE20-like serine/threonine-protein kinase (Homo sapiens) (UniProt Q9H2G2).
Test [12] addresses T4, Serine/threonine-protein kinase VRK1 (Homo sapiens) (UniProt Q99986).
T4 sequence (whole entry): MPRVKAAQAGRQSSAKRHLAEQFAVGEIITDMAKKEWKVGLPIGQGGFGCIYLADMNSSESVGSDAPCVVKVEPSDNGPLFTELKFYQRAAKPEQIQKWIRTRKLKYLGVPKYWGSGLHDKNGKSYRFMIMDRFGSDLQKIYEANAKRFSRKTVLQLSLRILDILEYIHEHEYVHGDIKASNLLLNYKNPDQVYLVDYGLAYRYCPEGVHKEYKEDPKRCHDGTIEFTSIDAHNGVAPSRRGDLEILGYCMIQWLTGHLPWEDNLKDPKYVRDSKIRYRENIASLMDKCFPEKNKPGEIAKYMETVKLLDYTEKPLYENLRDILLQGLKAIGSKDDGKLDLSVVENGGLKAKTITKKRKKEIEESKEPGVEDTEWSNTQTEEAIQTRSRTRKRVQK

Tyrosine-protein kinase JAK1 (Homo sapiens), sequence (P23458 whole entry): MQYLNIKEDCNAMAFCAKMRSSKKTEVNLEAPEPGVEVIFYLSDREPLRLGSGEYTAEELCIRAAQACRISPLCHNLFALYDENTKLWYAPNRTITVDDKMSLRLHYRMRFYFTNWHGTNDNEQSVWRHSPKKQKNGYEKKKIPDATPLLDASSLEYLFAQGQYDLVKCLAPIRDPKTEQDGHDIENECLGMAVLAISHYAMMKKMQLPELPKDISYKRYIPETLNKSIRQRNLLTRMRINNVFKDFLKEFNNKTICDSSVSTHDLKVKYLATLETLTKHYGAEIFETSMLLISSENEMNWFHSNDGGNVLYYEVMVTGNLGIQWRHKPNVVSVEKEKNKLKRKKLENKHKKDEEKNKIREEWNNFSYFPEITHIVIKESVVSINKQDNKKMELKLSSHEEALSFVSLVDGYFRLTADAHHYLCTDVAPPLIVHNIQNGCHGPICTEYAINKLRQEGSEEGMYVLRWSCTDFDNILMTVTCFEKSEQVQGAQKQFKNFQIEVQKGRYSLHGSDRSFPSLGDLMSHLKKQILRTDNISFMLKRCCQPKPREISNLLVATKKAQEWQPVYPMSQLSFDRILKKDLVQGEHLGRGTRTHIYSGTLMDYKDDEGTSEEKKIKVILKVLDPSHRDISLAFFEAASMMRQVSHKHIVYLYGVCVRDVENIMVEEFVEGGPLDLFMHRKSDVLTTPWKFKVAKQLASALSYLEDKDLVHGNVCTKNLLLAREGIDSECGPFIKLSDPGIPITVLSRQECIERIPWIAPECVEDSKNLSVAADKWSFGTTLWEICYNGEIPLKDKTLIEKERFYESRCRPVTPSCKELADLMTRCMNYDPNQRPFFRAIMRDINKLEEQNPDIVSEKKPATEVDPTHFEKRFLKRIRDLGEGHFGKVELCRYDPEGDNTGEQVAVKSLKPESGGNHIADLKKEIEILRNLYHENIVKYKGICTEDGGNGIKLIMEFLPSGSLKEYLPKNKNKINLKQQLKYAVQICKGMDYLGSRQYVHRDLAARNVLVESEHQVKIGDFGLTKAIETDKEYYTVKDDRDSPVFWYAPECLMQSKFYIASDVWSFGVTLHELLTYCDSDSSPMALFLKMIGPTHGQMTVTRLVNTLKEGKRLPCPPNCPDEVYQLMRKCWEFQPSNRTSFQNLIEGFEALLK
Serine/threonine-protein kinase Chk2, sequence (O96017 whole entry): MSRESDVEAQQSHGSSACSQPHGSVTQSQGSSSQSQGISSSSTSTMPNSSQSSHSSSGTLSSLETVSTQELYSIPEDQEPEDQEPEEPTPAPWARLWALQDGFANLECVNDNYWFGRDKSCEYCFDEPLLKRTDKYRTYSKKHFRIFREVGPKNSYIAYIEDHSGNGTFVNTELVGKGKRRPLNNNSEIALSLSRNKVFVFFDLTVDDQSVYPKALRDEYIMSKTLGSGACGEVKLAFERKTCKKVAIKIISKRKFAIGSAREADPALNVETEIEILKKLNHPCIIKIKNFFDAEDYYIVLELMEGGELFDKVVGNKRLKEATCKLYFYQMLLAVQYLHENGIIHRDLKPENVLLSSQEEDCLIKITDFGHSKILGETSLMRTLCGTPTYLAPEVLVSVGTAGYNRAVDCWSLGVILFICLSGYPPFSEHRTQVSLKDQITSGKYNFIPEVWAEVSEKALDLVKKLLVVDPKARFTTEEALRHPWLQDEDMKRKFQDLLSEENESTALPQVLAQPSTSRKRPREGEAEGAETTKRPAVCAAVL
STE20-like serine/threonine-protein kinase (Homo sapiens), sequence (Q9H2G2 whole entry, looked up): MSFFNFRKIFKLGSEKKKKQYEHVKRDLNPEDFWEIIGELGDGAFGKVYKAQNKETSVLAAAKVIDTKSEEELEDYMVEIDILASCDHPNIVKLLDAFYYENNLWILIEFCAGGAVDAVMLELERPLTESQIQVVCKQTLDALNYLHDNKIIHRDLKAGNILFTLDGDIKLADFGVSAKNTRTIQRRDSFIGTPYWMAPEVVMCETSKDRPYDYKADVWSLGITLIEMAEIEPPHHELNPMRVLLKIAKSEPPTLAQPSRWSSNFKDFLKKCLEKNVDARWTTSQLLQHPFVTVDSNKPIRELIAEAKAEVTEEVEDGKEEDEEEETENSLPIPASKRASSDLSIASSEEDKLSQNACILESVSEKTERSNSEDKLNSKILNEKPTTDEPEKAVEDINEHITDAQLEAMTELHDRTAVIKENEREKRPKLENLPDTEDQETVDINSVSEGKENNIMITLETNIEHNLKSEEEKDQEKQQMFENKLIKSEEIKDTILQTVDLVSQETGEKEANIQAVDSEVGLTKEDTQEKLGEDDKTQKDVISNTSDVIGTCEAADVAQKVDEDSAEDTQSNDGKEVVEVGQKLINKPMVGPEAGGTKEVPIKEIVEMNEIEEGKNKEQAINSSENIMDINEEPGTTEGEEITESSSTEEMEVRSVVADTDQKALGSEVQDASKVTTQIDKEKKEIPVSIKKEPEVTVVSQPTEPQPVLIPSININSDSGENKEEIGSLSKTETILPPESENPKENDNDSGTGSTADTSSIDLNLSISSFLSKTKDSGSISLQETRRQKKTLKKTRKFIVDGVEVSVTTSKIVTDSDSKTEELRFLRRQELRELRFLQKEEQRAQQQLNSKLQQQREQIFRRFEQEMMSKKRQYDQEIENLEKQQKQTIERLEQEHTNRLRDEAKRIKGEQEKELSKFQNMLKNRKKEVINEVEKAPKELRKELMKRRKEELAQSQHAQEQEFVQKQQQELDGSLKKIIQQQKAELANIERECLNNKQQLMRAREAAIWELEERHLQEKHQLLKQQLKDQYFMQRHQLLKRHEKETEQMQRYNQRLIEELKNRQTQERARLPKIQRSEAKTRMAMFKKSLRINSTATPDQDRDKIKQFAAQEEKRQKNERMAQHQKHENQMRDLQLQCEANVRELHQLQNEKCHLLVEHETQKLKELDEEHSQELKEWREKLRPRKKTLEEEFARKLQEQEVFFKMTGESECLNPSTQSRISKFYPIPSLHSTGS
Mitogen-activated protein kinase 11, sequence (Q15759 whole entry): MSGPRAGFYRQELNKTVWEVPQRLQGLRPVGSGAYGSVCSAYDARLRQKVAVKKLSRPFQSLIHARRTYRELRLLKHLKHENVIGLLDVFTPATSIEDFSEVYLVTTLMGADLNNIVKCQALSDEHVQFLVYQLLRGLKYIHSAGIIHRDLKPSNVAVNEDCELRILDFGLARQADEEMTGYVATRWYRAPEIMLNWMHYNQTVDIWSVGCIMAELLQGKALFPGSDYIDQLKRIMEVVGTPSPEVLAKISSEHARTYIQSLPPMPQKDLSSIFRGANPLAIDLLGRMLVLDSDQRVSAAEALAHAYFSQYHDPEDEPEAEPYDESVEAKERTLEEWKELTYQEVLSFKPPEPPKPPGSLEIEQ
Serine/threonine-protein kinase PAK 4 (Homo sapiens), sequence (O96013 whole entry, looked up): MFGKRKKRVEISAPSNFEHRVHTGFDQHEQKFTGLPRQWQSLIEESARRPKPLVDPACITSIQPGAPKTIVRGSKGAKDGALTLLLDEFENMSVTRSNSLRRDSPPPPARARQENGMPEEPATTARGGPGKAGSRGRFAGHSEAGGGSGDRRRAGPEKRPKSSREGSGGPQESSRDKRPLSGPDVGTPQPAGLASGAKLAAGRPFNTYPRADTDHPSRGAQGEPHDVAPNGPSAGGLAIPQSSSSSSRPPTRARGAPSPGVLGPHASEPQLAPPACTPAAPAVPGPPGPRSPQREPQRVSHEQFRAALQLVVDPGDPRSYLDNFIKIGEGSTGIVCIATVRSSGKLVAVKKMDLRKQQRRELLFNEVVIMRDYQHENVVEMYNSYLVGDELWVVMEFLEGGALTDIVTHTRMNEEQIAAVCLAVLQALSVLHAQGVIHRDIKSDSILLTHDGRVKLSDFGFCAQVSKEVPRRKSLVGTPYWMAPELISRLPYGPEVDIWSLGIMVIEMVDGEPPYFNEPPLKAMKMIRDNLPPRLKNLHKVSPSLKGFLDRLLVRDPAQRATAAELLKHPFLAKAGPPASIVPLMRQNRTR
Serine/threonine-protein kinase PAK 5 (Homo sapiens), sequence (Q9P286 whole entry, looked up): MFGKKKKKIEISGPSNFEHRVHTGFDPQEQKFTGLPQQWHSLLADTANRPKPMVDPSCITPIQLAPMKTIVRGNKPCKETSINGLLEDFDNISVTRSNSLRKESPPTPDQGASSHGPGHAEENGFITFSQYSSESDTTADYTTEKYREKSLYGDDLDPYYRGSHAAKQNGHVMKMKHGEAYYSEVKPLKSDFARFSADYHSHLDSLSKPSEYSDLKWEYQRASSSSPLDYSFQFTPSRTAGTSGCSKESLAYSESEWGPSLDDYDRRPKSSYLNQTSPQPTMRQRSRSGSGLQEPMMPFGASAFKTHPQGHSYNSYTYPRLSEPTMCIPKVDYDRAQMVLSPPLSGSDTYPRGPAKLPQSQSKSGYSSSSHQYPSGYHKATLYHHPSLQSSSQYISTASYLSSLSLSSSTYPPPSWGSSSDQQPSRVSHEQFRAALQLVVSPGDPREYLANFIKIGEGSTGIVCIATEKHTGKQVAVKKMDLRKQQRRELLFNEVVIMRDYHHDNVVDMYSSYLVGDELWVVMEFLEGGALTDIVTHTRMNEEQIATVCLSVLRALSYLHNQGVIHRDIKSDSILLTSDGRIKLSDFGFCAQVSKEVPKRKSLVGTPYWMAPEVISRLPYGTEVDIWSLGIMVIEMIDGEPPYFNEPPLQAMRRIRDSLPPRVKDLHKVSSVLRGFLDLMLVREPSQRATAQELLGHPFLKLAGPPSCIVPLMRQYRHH

Take `Cc1c2ccncc2c(C)c2c1[nH]c1ccccc12` [ELLIPTECINE]: the ΔTm (commonly the shift of the melting midpoint relative to a reference) in test [1] amounted to 2 °C; in test [2] it was 2.3 °C; in test [3] it was 0.6 °C; in test [4] it was 0.5 °C; in test [5], 0.7 °C; in test [6], 0.9 °C. Also, the ΔTm in test [7] was 8.6 °C; in [8] it was 1.3 °C; in test [9], 3.3 °C; in [10] it was 5.9 °C; in test [11] it was 4.1 °C; in test [12] it was 0.4 °C.
As for `NCCNc1ncc(C(N)=O)c(Nc2cccc(C(F)(F)F)c2)n1`, the ΔTm in [1] was 6.6 °C; in [2] it was 1.4 °C; in [3], 2 °C; in test [4], 0.2 °C; in test [5], 6.1 °C; in test [6], 5.2 °C. For the same molecule, the ΔTm in test [7] was found to be 5.5 °C; in [8], 1.1 °C; in test [9], 0.3 °C; in [10], 2.3 °C; in [11], 0.1 °C; in test [12], 3.6 °C.
In the case of `CC(C)(C)n1nc(-c2cccc3ccccc23)c2c(N)ncnc21`, the thermal shift (ΔTm) is 0.3 °C in test [1]; -0.1 °C in test [2]; 2.9 °C in [3]; -0.2 °C in test [4]; 1.2 °C in [5]; 1 °C in test [6]. In addition, the thermal shift (ΔTm) in test [7] is -0.4 °C; in test [8], 0.7 °C; in test [9] it was 1.1 °C; in test [10] it was 2.1 °C; in test [11], 6.1 °C; in [12], 0.7 °C.
Take `Cc1cc(C=C2C(=O)C=CC2=O)cc(C)c1O`: the shift in melting temperature (ΔTm) in test [1] is 2.5 °C; in test [2], -7.1 °C; in [3] it was 2.3 °C; in test [4] it was 0.8 °C; in [5] it was 0.7 °C; in test [6], 0.1 °C. Besides, the shift in melting temperature (ΔTm) in test [7] is -0.4 °C; in [8], 3.6 °C; in test [9], 1.3 °C; in [10], 0.5 °C; in [11] it was 0.7 °C; in test [12], -3.1 °C.
With `COc1cc(/C=C/C(=O)CC(=O)/C=C/c2ccc(O)c(OC)c2)ccc1O` [CURCUMIN], the shift in melting temperature (ΔTm) was found to be 5.4 °C in test [1]; 4.1 °C in test [2]; 3.7 °C in test [3]; 1.1 °C in test [4]; 3 °C in test [5]; 1.3 °C in [6]. Besides, the ΔTm in [7] turned out to be 0.2 °C; in [8], 6.9 °C; in [9], 3.3 °C; in [10], 3.4 °C; in test [11] it was 3.2 °C; in test [12], 1 °C.
For the molecule `COc1ccc2c(c1)/C(=C/c1cnc[nH]1)C(=O)N2` [SU-9516], the ΔTm in test [1] is 1.6 °C; in [2] it was 8.4 °C; in test [3], 0.8 °C; in test [4], 1.2 °C; in test [5] it was 1.8 °C; in [6], 1.2 °C. Moreover, the ΔTm came to 0.2 °C in test [7]; 2.3 °C in test [8]; 4.9 °C in [9]; 1 °C in test [10]; 3.3 °C in test [11]; 0.5 °C in test [12].
For the molecule `NC1=N/C(=C2/CCNC(=O)c3[nH]ccc32)C(=O)N1` [DEBROMOHYMENIALDISINE], the ΔTm is 1.7 °C in test [1]; -0.2 °C in test [2]; -0.4 °C in [3]; 1.1 °C in test [4]; 0.9 °C in test [5]; 0.2 °C in [6]. Further, the ΔTm in test [7] stood at 0 °C; in [8], 2.4 °C; in test [9] it was 0.9 °C; in test [10] it was 0 °C; in test [11] it was 0.6 °C; in test [12], 1.3 °C.
As to `COc1cccc(-c2cc(=O)c3ccccc3o2)c1N`, the thermal shift (ΔTm) in test [1] is -0.5 °C; in [2], 1 °C; in test [3], 0.2 °C; in test [4], -0.2 °C; in test [5], 0.5 °C; in test [6], -0.2 °C. The ΔTm in [7] is -0.2 °C; in test [8] it was 0.7 °C; in [9], 0.2 °C; in [10] it was 0.3 °C; in test [11], -0.1 °C; in test [12], 0.2 °C.
Consider `C[S+]([O-])c1ccc(CSc2nc(-c3ccc(F)cc3)c(-c3ccncc3)[nH]2)cc1` (stereo unspecified), for which the ΔTm in test [1] was -0.4 °C; in [2] it was 0.2 °C; in test [3], 1.5 °C; in test [4] it was 0.5 °C; in test [5], 0.1 °C; in [6], 0.4 °C. Moreover, the shift in melting temperature (ΔTm) in [7] was -0.3 °C; in test [8], -0.4 °C; in test [9] it was 0.3 °C; in test [10], -0.2 °C; in [11] it was 1.1 °C; in test [12] it was -0.1 °C.
As to `CC(C)(C)n1nc(-c2ccc(Cl)cc2)c2c(N)ncnc21`, the shift in melting temperature (ΔTm) in [1] was determined as 0.4 °C; in test [2] it was 0.3 °C; in test [3], 4.6 °C; in test [4], 0.3 °C; in [5], 1 °C; in test [6] it was 0.7 °C. Besides, the thermal shift (ΔTm) in [7] is -0.1 °C; in [8], 0.7 °C; in test [9], 4.1 °C; in [10] it was 2.3 °C; in test [11] it was 3.6 °C; in [12], 0 °C.
As for `NC(=O)c1ccc2[nH]c(-c3ccc(Oc4ccc(Cl)cc4)cc3)nc2c1`, the ΔTm in test [2] was 1.7 °C; in test [3], -0.4 °C; in test [4] it was 1.4 °C; in test [5], 1.3 °C; in [6], -0.2 °C; in test [7] it was -0.5 °C. The ΔTm in test [8] is -0.8 °C; in test [9] it was 1.4 °C; in test [10], 0.4 °C; in test [11], 0 °C; in [12] it was 0.5 °C.
